Source: ChEMBL document CHEMBL3507680, “University of Dundee, Gates Library screen for HepG2 cell viability”

Test: Human HepG2 cell viability assay in 384 well format
Assay type: toxicity, cell-based
Set-up: dose 125 nL, time 70.5 hour; concentration not given beside the values
Details: HepG2 cells, read-out: Inhibition

| Structure (SMILES) | cytotoxicity at 70.5 h [%] |
| --- | --- |
| CC(NC(=O)c1cccs1)(C(N)=O)c1cccc(C(F)(F)F)c1 (configuration not stated) | -101 |
| CCn1c(C)cc(C(=O)N2CCC(Nc3cccnn3)CC2)c1C | -108 |
| CN(Cc1ccccc1)C(=O)CCS(=O)(=O)c1ccc2c(c1)OCCO2 | -62.4 |
| O=C(NCCC(=O)N1CCCC1)C(OC1CCCC1)c1ccccc1 (configuration not stated) | 34.3 |
| CCN(CCO)C(=O)Nc1ccc(OCCOC)nc1 | 2.78 |
| CCCn1[nH]cc/c1=N\C(=O)CN1CCC[C@H]1CO | 2.76 |
| CC(NC(=O)c1cccc(CN2CCN(C)CC2)c1)c1ccccn1 (configuration not stated) | 0.178 |
| CCOc1ncccc1CNC(=O)c1csc(Br)c1 | -8.48 |
| CN(C)c1ncccc1CNC(=O)c1csc(Br)c1 | 13.3 |
| O=C1CCN(C(=O)C2(c3ccc(Br)cc3)CC2)CCN1 | 1.42 |
| CC(NC(=O)NCc1cccc(CN2CCCC2)c1)c1nccs1 (configuration not stated) | -5.42 |
| CN(CC(=O)NC(c1ccc(F)cc1)C(F)(F)F)S(C)(=O)=O (configuration not stated) | -0.794 |
| CN(Cc1cc(Br)cn1C)C(=O)c1ccsc1 | -7.08 |
| COc1ncccc1CNC(=O)c1c[nH]c(=O)c(Br)c1 | -4.91 |
| CC1(C)CC1C(=O)NS(=O)(=O)Cc1cc(-c2ccccc2)no1 (configuration not stated) | -1.85 |
| Cc1noc(NCc2ccc(F)cc2F)n1 | 21.8 |
| CN(CCC#N)C(=O)CN1CCCC1c1cccs1 (configuration not stated) | -4.47 |
| O=C(NCCN1CCOCC1)C(OC1CCCC1)c1ccccc1 (configuration not stated) | -3.19 |
| CN(Cc1ccco1)C(=O)CN1CCCC1c1cccs1 (configuration not stated) | 24.6 |
| Cc1nc(CNC2CCc3nc(C(C)C)nn3C2)oc1C (configuration not stated) | -4.84 |
| CCc1nnc(C2Cc3ccccc3CN2Cc2cc(C)on2)o1 (configuration not stated) | -2.94 |
| O=C(Nc1cccs1)N(CCO)CCOCC(F)(F)F | 6.76 |
| CCN(CC)c1ccc(CNC(=O)c2cccc(C)n2)cn1 | 11.5 |
| CS(=O)(=O)N1CCC(C(=O)N2CCN(Cc3cccc(Cl)c3)CC2)CC1 | -8.76 |

| Structure (SMILES) | cytotoxicity at 70.5 h [%] |
| --- | --- |
| CC1(C)COCCN1C(=O)Cc1csc(Cc2ccccn2)n1 | -7.18 |
| CN1CCC(C(=O)N2CCN(Cc3cccc(Cl)c3)CC2)CC1=O (configuration not stated) | 3.2 |
| CCN(CC)c1ccc(CNC(=O)c2ccccn2)cn1 | 10.8 |
| COc1ccccc1CC1CCN(C(=O)CCN2CCOC2=O)CC1 | 2.48 |
| Cc1ccccc1C1(CNC(=O)N2CCC(CC(N)=O)CC2)CC1 | -4.35 |
| O=C(Cc1cccs1)NCc1ccnc(OC2CCOCC2)c1 | -6.12 |
| Cc1c(NC(C)C(C)C)cccc1C(=O)NCc1cnn(C)c1 (configuration not stated) | -2.68 |
| Cc1ccc(CNC(=O)C2CCN(C(=O)c3ccccc3)CC2)n1C | -8.06 |
| NC(=O)N1CCCC1COC(=O)c1cc(F)ccc1F (configuration not stated) | -1.3 |
| NC(=O)N1CCCC1COC(=O)c1ccc(F)cc1Br (configuration not stated) | 12.5 |
| CCOc1cc(F)ccc1NC(=O)N(C(C)CS(C)(=O)=O)C1CC1 (configuration not stated) | -4.36 |
| CC(CS(C)(=O)=O)N(C(=O)Nc1ccc(F)cc1F)C1CC1 (configuration not stated) | -1.48 |
| Cc1noc(-c2cccnc2N2CCOC(C)(c3cnn(C)c3)C2)n1 (configuration not stated) | -6.06 |
| CNC(=O)CC1CCN(C(=O)NCC2(c3ccccc3F)CC2)CC1 | -3.18 |
| COCCOCCCC(=O)N1CCC(Cc2ccccc2OC)CC1 | -10.9 |
| Cc1nc(C)c(C(=O)N(C)Cc2cnn(C)c2)s1 | 1.01 |
| Cc1ccccc1C1CCN(C(=O)CCNS(C)(=O)=O)C1 (configuration not stated) | 20.6 |
| COCCNC(=O)c1cc(OC)ccc1Br | 0.394 |
| Cc1nn(C)c(C)c1CC(=O)NCc1cccnc1N1CCOCC1 | -5.49 |
| Cc1nn(C)c(Cl)c1C(=O)NCc1cccnc1N1CCOCC1 | -11.8 |
| Cc1nc(CCNC(=O)NC2CCCN(c3ncccn3)C2)cs1 (configuration not stated) | 23.9 |
| CS(=O)(=O)NCC1CCCN(C(=O)Nc2ccccc2N2CCCC2)C1 (configuration not stated) | -1.87 |
| CNS(=O)(=O)c1ccc(CCC(=O)NCc2cccc(OC)c2)cc1 | -0.152 |
